Test results as given in US10487110B2, “Stabilized compounds having secondary structure motifs” (President and Fellows of Harvard College, priority 1999, dated 2019).
Bridge positions count the residues as written; N and C are the ends. Square brackets hold non-standard residues; d marks the D form. R‑13 = (R)-2-(2'-pentenyl)alanine; R‑14 = (R)-2-(2′-hexenyl)alanine; S‑14 = (S)-2-(2′-hexenyl)alanine; S‑16 = (S)-2-(2′-octenyl)alanine

Tests used:
[1] = system: trypsin; assay: Peptide trypsin digest (cleavage rate constants); assay type: in vitro ADME; conditions: 10% EtOH in 50 mM Tris pH 8.3, room temperature; for Cleavage rate constant, Unmetathesized: unmetathesized peptide; for Cleavage rate constant, Metathesized and hydrogenated: metathesized and hydrogenated peptide
Experimental: Peptide trypsin digest: A typical peptide trypsin digest experiment was performed by adding 5 μL of a 20× trypsin solution in 1 mM HCl to a 100 μL solution of peptide at 9 μM in 10% EtOH in 50 mM Tris at pH 8.3. The reaction was allowed to proceed at room temperature for 30 min at which time it was quenched by adding 100 μL of a 1% trifluoroacetic acid solution and frozen on dry ice. The sample was then thawed and injected into a reverse phase HPLC on a C18 column for quantitation at 280 nm. The cleavage rate constants were obtained by performing the digest experiments at multiple trypsin concentrations and fitting to a kinetic model that is first order in both enzyme and substrate concentration.

[2] = Circular dichroism measure of helical content; assay type: physicochemical
Experimental: Circular dichroism: Circular dichroism spectra were collected on a Jasco J-710 spectropolarimeter at 4° C. A typical sample was prepared by lyophilizing a measured volume of peptide solution and then resuspending it in 3 ml of 0.1% TFA in water to obtain a solution with a 280 nm absorbance of approximately 0.06 absorbance units. The sample was placed in a 1 cm CD cuvette and the ultraviolet absorbance was measured. The circular dichroism spectrum was measured and a baseline CD spectrum of 0.1% TFA in water was subtracted from it. The baseline subtracted CD spectrum was then normalized using the 280 nm absorbance.

[3] = Sedimentation equilibrium (analytical centrifugation); assay type: physicochemical; conditions: conditions of the circular dichroism experiments, 4° C.
Experimental: Analytical centrifugation: Sedimentation Equilibrium Experiments were performed on a Beckman Optima XL-A analytical centrifuge. The samples were centrifuged at 35,000 RPM at 4° C. and monitored at 280 nm. The data was fit to a single species model. The sedimentation equilibrium experiments were run on the identical samples from which circular dichroism spectra were recorded.

[4] = crosslinked versus corresponding uncrosslinked modified peptide

Substance	Cleavage rate constant, Unmetathesized [1]	Cleavage rate constant, Metathesized and hydrogenated [1]	decrease of helical content following RCM [2, 4]	also measured
Ac-EWAETAAAKFLAAHA-NH2 [Control, reference compound]	2.39 M⁻¹ s⁻¹			Cleavage rate constant, Unmetathesized ([1]; listed as unmodified control peptide): 2.38 M⁻¹ s⁻¹; helical content (α-helicity) ([2]; circular dichroism, water containing 0.1% trifluoroacetic acid, 4° C.): ~40%
Ri,i+7S(9): Ac-EWAEyAAAKFLzAHA-NH2 (SEQ ID NO: 2), (y,z) = (R-13,S-14), 9 carbon crosslink (Ac-EWAE[R‑13]AAAKFL[S‑14]AHA-NH2; staple 5-12)		0.37 M⁻¹ s⁻¹	21%	
Ri,i+7S(10): Ac-EWAEyAAAKFLzAHA-NH2 (SEQ ID NO: 2), (y,z) = (R-14,S-14), 10 carbon crosslink (Ac-EWAE[R‑14]AAAKFL[S‑14]AHA-NH2; staple 5-12)		0.34 M⁻¹ s⁻¹	12%	
Ri,i+7S(11): Ac-EWAEyAAAKFLzAHA-NH2 (SEQ ID NO: 2), (y,z) = (R-13,S-16), 11 carbon crosslink (Ac-EWAE[R‑13]AAAKFL[S‑16]AHA-NH2; staple 5-12)	0.50 M⁻¹ s⁻¹	0.058 M⁻¹ s⁻¹		oligomeric state by sedimentation equilibrium [3]: monomeric; helix stabilization (result in words) ([2]; circular dichroism): best helix stabilizer; increase of helical content following RCM ([2]; crosslinked versus corresponding uncrosslinked modified peptide, for Ri,i+7S(12) cis and trans double bond isomers): 26%; increase of helical structure compared to unmodified control peptide ([2]; versus unmodified control peptide): 44%
Ri,i+7S(12): Ac-EWAEyAAAKFLzAHA-NH2 (SEQ ID NO: 2), (y,z) = (R-14,S-16), 12 carbon crosslink; cis and trans isomers (Ac-EWAE[R‑14]AAAKFL[S‑16]AHA-NH2; staple 5-12; also: cis and trans olefin isomers)		0.12 M⁻¹ s⁻¹		
